Data from PMC10620212, “Postprandial glycemic and lipidemic effects of black rice anthocyanin extract fortification in foods of varying macronutrient compositions and matrices” (NPJ Science of Food, 2023).

How the values were obtained:
[1] = parameters: method as in PMID 24602005, PMID 25347327; details: previous reports; cited from earlier work
[2] = Bread trial: plasma bioavailability of anthocyanins and phenolic metabolites; type: in vivo, human; details: for change in plasma concentration, mean difference between 60 and 120 min: 4-BB group
Experimental: Bioavailability analysis was performed in the Bread trial according to the methods by Kay, et al.[58]. […] The sample was drained off in a vacuum manifold and washed with 2 volumes of acidified water. The remaining ACN extract was eluted with 6 mL acidified methanol, and subsequently brought to dryness at 25 °C under a continuous stream of nitrogen gas. The residue was dissolved in 200 μL of 0.1% v/v formic acid and filtered through a 13 mm 0.22 μm PTFE hydrophilic syringe filter. The resulting solution was analyzed using a reverse-phased C18 Sunfire column (250 × 4.6 mm/5 μm; Waters, Wexford, Ireland) on an HPLC system (Shimadzu Prominence, Shimadzu, Kyoto, Japan) connected with a DAD. The injection volume was 50 μL. The flow rate and oven temperature were maintained at 1 mL/min at 25 °C. A gradient elution process was applied (mobile phase A: 5% v/v formic acid; mobile phase B: 100% acetonitrile): 0% B for 5 min, 10% B at 20 min, 13% B at 40 min, 20% B at 44 min, 25% B at 50 min, and 100% B at 55 min. Detection of ACNs was performed at 520 nm; while its metabolites, ferulic acid, vanillic acid, and protocatechuic acid were detected at 280 nm. Identification and quantification of each ACN and metabolite were based on matching the retention time and peak areas with the external calibration curve of respective standards.

[3] = target: α-glucosidase; test: In-vitro starch hydrolase inhibition (starch turbidity assay), α-glucosidase; type: biochemical; details: mean (SD)
Experimental: (§1) To determine the inhibitor activities of major ACN species, 50 μL of enzyme solution was mixed with 50 μL of inhibitor solution of different concentrations and incubated for 15 min at 37 °C. The reaction was initiated by mixing 100 μL of 1% gelatinized wheat starch solution into the enzyme-inhibitor mixtures. Changes in turbidity were immediately monitored at 660 nm for 2 h in a microplate reader preincubated at 37 °C, with one reading per minute, while shaking in between readings to minimize starch sedimentation. Enzyme activities were inversely proportional to the AUC for turbidity readings. The percentage inhibition (%I) was defined as:7 %I=(AUCSample−AUCControl)/AUCSample×100 in which AUCSample is the area under the curve for the inhibitor, and AUCControl is the area under the curve without inhibitors.

[4] = target: T1, α-amylase (Sus scrofa, UniProt P00690); test: In-vitro starch hydrolase inhibition (starch turbidity assay), α-amylase; type: biochemical, porcine; details: mean (SD)
T1 sequence (P00690 16-511): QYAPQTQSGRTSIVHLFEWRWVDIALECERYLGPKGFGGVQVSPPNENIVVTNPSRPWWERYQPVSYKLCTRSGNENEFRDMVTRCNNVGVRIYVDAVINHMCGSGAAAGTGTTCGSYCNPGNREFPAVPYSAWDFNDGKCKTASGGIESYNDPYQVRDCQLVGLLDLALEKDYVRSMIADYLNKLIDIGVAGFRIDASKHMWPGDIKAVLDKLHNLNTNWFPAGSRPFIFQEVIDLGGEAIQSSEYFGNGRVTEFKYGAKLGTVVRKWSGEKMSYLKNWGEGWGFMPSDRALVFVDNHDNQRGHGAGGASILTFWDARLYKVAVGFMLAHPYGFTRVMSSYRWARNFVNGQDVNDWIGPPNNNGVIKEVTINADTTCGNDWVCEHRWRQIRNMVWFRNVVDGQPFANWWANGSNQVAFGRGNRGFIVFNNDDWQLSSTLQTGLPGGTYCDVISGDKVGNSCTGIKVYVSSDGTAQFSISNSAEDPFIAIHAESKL
Experimental: as §1

| share of total polyphenols in plasma at 60 min peak concentrations ([2]; Bread trial) [%] | IC50 [3] [mM] | IC50 [4] [µM] | SMILES | time of peak plasma concentrations [1] [h] | change in plasma concentration, mean difference between 60 and 120 min [2] |
| --- | --- | --- | --- | --- | --- |
|  | 0.904 | 483 | C[C@@H]1O[C@@H](OC[C@H]2O[C@@H](Oc3cc4c(O)cc(O)cc4[o+]c3-c3ccc(O)c(O)c3)[C@H](O)[C@@H](O)[C@@H]2O)[C@H](O)[C@H](O)[C@H]1O [C3R, cyanidin-3-rutinoside] |  |  |
|  | 1.12 | 364 | OC[C@H]1O[C@@H](Oc2cc3c(O)cc(O)cc3[o+]c2-c2ccc(O)c(O)c2)[C@H](O)[C@@H](O)[C@@H]1O [C3G, cyanidin-3-glucoside] |  |  |
|  | 1.34 | 649 | COc1cc(-c2[o+]c3cc(O)cc(O)c3cc2O[C@@H]2O[C@H](CO)[C@@H](O)[C@H](O)[C@H]2O)ccc1O [P3G, peonidin-3-glucoside] |  |  |

More lines, now with the values behind:

| SMILES | share of total polyphenols in plasma at 60 min peak concentrations ([2]; Bread trial) [%] | IC50 [3] [mM] | IC50 [4] [µM] | time of peak plasma concentrations [1] [h] | change in plasma concentration, mean difference between 60 and 120 min [2] |
| --- | --- | --- | --- | --- | --- |
| O=C(O)c1ccc(O)c(O)c1 [PCA, protocatechuic acid] | 93.9 |  |  | 1 to 2 |  |
| COc1cc(C(=O)O)ccc1O [VA, vanillic acid] |  |  |  | 0.5 to 1 | 0.439 |
| COc1cc(/C=C/C(=O)O)ccc1O [FA, ferulic acid] |  |  |  | 0.5 to 1 | 1.08 |
